Data as given in patent US10085998B2, “Salts of potassium ATP channel openers and uses thereof” (Essentialis, Inc., priority 2006, dated 2018).
Entries after “also recorded” stand apart in the source; their conditions may differ.

What was measured:
[1] = Moisture sorption analysis; type: physicochemical; conditions: for Moisture sorption: hygroscopicity: relative humidity scan; for XRPD pattern following the moisture sorption/desorption analysis: after moisture sorption experiment
Procedure: Moisture Sorption Analysis was performed with a Hiden IGAsorp Moisture Sorption Instrument. Samples were first dried at 0% relative humidity at 25° C. until an equilibrium weight was reached, or for a maximum of 4 hours. Samples were then subjected to an isothermal (25° C.) scan from 10-90% relative humidity in steps of 10%. The samples were allowed to equilibrate to an asymptotic weight at each point for a maximum of 4 hours. Following absorption, a desorption scan from 85% relative humidity (at 25° C.) was run in steps of −10%, again allowing a maximum of 4 hours for the samples to equilibrate. The resulting samples after desorption were dried at 80° C. for two hours and analyzed by XRPD.

[2] = Form conversion and degradation under thermal stress; conditions: 60° C.; for Form conversion and degradation under thermal stress (XRPD, DSC): closed, protected from light, 7 and 14 days; for Thermal stability of form: 7 days
Procedure: Studies were also conducted to evaluate the likelihood for conversion and degradation under thermal stress.

[3] = Slurry studies (inter-conversion of the solid form); conditions: for Slurry study: conversion of solid form: n-heptane, dichloromethane (CH2Cl2) and toluene, 7 and 14 days; for Slurries: conversion of solid form: 50/50 mixtures of Forms C, D and F in ethyl acetate, acetonitrile and isopropanol, room temperature
Procedure: Slurry experiments were performed on each form to determine propensity for conversion and to see if a unique form could be generated.

Row | Compound | Moisture sorption: hygroscopicity ([1]; 25° C.) | Water absorbed at 60% RH ([1]; 25° C.) | XRPD pattern following the moisture sorption/desorption analysis [1] | Form conversion and degradation under thermal stress (XRPD, DSC) [2] | Slurry study: conversion of solid form [3] | Thermal stability of form [2] | Slurries: conversion of solid form [3] | Hysteresis upon desorption / hydrate formation ([1]; 25° C., desorption scan) | Moisture sorption: hygroscopicity ([1]; 25° C., listed as Sodium diazoxide salt) | Water absorbed at 80% RH ([1]; 25° C., 80% RH)
1 | CC1=Nc2ccc(Cl)cc2S(=O)(=O)[N-]1.C[N+](C)(C)CCO [Form A] | Hygroscopic - deliquesced | 2.4 wt % | consistent with Form A | Started to convert to Form | conversion to Form B was observed after seven days; also recorded: Converted to Form B after |  |  |  |  | 
2 | CC1=Nc2ccc(Cl)cc2S(=O)(=O)[N-]1.CC1=Nc2ccc(Cl)cc2S(=O)(=O)[N-]1.O.[K+].[K+] [Form D] | hygroscopic; also recorded: Hygroscopic - |  | consistent with Form D |  |  | Stable (7 days) | conversion to Form D was observed in all solvents; also recorded: Converted to Form D |  |  | 
3 | C1COCCO1.CC1=Nc2ccc(Cl)cc2S(=O)(=O)[N-]1.CC1=Nc2ccc(Cl)cc2S(=O)(=O)[N-]1.[K+].[K+] [Form F] | hygroscopic |  | consistent with Form D |  |  | Stable (7 days) | conversion to Form D was observed in all solvents; also recorded: Converted to Form D |  |  | 
4 | CC1=Nc2ccc(Cl)cc2S(=O)(=O)[N-]1.[Na+] [sodium salt of diazoxide] | hygroscopic | 1.2 wt % |  | little propensity to change form or degrade | no propensity of inter-conversion |  |  | possible hydrate formation | deliquescent - | 6.6 wt %
